Earlier results in US20110008801A1, “METHODS FOR MEASURING CELL-CELL OR CELL-MATRIX ADHESIVE FORCES AND COMPOUNDS FOR DISRUPTING ADHESIVE FORCES IN BIOLOGICAL SYSTEMS” (Worcester Polytechnic Institute, priority 2006, published 2011).

Test system: UPEC, type 1 and P fimbriated E. coli

## O=C(CO)[C@@H](O)[C@H](O)[C@H](O)CO [fructose]
  adhesion of fimbriated E. coli: inhibited the adhesion of bacteria with type 1 fimbriae only
